Experimental data published in patent publication US11453647B2, “Benzimidazole derivatives as adenosine receptor antagonists” (Merck Patent GmbH, priority 2017, dated 2022).

What was measured:
Assay type in all cases: cell-based
[1] = biological target: T1, human A2A receptor (Homo sapiens, UniProt P29274); test: functional cAMP (HTRF) assay, recombinant HEK293 cells expressing human A2A receptor, agonist NECA
T1 construct: expressed in transfected cells; host or cells: HEK293

[2] = biological target: T2, A2B receptors (Homo sapiens, UniProt P29275); test: functional cAMP (HTRF) assay, recombinant HEK293 cells expressing human A2B receptor, agonist NECA; design: expressed in transfected cells; host or cells: HEK293
T2 sequence (P29275 1-332): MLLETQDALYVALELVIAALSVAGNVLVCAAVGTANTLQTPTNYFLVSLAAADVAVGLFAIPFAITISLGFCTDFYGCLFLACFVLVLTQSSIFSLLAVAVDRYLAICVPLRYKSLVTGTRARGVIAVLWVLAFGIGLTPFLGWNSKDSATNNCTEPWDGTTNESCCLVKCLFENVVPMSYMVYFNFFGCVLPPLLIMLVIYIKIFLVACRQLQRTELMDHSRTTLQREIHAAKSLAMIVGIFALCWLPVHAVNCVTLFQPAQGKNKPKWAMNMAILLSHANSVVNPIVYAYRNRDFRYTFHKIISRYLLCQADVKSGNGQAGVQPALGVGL

[3] = biological target: T3, human A3 receptor (Homo sapiens, UniProt P0DMS8); test: functional cAMP (HTRF) assay, recombinant CHO cells expressing human A3 receptor, forskolin, agonist IB-MECA
T3 construct: expressed in transfected cells; host or cells: CHO
T3 sequence (P0DMS8 1-318): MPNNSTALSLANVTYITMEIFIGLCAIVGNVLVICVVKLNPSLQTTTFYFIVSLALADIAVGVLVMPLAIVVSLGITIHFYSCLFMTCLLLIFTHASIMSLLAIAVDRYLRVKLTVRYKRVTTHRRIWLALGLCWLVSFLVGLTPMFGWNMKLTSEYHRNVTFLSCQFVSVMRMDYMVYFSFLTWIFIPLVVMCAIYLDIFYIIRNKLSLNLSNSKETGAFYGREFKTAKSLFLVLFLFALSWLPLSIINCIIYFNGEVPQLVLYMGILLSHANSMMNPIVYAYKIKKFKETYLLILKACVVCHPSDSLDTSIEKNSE
Description: The functional activities of human A2A, A2B, A1 and A3 receptors were determined by quantification of cAMP, being the second messenger for adenosine receptors.
For human A1 and A3 receptors, recombinant CHO cells, expressing either A1 or A3-receptor, were used. As both receptors couple to Gi proteins, the assay protocol was adapted:
Cells were seeded into 384-well plates, forskolin, test compounds and agonists (CPA for A1- and IB-MECA for A3-receptor) were added. After 30 min incubation, HTRF reagents (cAMP dynamic 2, Cis Bio) were added and the cellular cAMP levels were determined using the ENVISION (Perkin Elmer) plate reader. Obtained raw data were normalized against the inhibitor control and the neural control (DMSO) and the normalized data were fitted using GeneData software.

T1 sequence (P29274 whole entry): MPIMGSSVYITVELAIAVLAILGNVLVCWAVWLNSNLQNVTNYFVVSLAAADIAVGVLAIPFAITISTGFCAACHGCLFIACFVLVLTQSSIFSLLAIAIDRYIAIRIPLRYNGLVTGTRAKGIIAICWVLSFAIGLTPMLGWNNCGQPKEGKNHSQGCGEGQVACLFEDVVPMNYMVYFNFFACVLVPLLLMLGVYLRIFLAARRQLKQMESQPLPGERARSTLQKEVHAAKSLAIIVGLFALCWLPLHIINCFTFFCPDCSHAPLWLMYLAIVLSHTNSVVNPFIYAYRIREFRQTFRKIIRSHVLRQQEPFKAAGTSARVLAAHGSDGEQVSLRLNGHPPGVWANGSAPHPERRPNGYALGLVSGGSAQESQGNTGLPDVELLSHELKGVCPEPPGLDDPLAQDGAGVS

Row | Structure (SMILES) | IC50 [1] [µM] | IC50 [2] [µM] | IC50 [3] [µM]
1 | COc1ccc(-c2ccccc2)c2nc(NC(=O)c3ccc(F)cc3)[nH]c12 [compound 2, 4-Fluoro-N-(7-methoxy-4-phenyl-1H-benzoimidazol-2-yl)-benzamide] | < 0.01 | < 0.1 | < 0.01
2 | COc1ccc(-c2ccccc2)c2nc(NC(=O)c3ccnc(Br)c3)[nH]c12 [compound 3, 2-Bromo-N-(7-methoxy-4-phenyl-1H-benzoimidazol-2-yl)-isonicotinamide] | < 0.01 | < 0.1 | < 0.01
3 | COc1ccc(-c2ccccc2)c2nc(NC(=O)c3ccc(Br)nc3)[nH]c12 [compound 5, 6-Bromo-N-(7-methoxy-4-phenyl-1H-benzoimidazol-2-yl)-nicotinamide] | < 0.01 | < 0.1 | < 0.01
4 | COc1ccc(C2CCCCC2)c2nc(NC(=O)c3ccnc(N4CCOCC4)c3)[nH]c12 [compound 17, N-(4-Cyclohexyl-7-methoxy-1H-benzoimidazol-2-yl)-2-morpholin-4-yl-isonicotinamide] | < 0.01 | > 1 | < 1
5 | COc1ccc(-c2ccccc2)c2nc(NC(=O)N3CCC(C)CC3)[nH]c12 [compound 28, 4-Methyl-piperidine-1-carboxylic acid (7-methoxy-4-phenyl-1H-benzoimidazol-2-yl)-amide] | < 0.01 | < 1 | < 1
6 | COc1ccc(-c2cnn(C)c2)c2nc(NC(=O)c3cnc(C)o3)[nH]c12 [compound 215, N-[7-methoxy-4-(1-methyl-1H-pyrazol-4-yl)-1H-1,3-benzodiazol-2-yl]-2-methyl-1,3-oxazole-5-carboxamide] | < 0.01 | < 0.1 | –
7 | COc1ccc(-c2cnn(CC(C)(C)O)c2)c2[nH]c(NC(=O)N3CCC(C)(O)CC3)nc12 [compound 238, 4-hydroxy-N-{7-[1-(2-hydroxy-2-methylpropyl)-1H-pyrazol-4-yl]-4-methoxy-1H-1,3-benzodiazol-2-yl}-4-methylpiperidine-1-carboxamide] | < 0.1 | – | > 1
8 | COc1ccc(-c2cccc(F)c2)c2nc(NC(=O)c3cnn(C)c3)[nH]c12 [compound 239, N-[4-(3-fluorophenyl)-7-methoxy-1H-1,3-benzodiazol-2-yl]-1-methyl-1H-pyrazole-4-carboxamide] | < 0.01 | < 0.01 | –
9 | COc1ccc(-c2cnn(C)c2)c2nc(NC(=O)C3CNC(=O)C3)[nH]c12 (stereo not drawn) [compound 246, N-[7-methoxy-4-(1-methyl-1H-pyrazol-4-yl)-1H-1,3-benzodiazol-2-yl]-5-oxopyrrolidine-3-carboxamide] | < 0.1 | – | > 1
10 | COc1ccc(-c2cnn(C)c2)c2nc(NC(=O)NCc3nccs3)[nH]c12 [compound 247, 3-[7-methoxy-4-(1-methyl-1H-pyrazol-4-yl)-1H-1,3-benzodiazol-2-yl]-1-[(1,3-thiazol-2-yl)methyl]urea] | < 0.1 | – | > 1
11 | COc1ccc(-c2cnn(C)c2)c2nc(NC(=O)N[C@@H]3CNC[C@@H]3F)[nH]c12 [compound 249, 1-[(3R,4S)-4-fluoropyrrolidin-3-yl]-3-[7-methoxy-4-(1-methyl-1H-pyrazol-4-yl)-1H-1,3-benzodiazol-2-yl]urea] | < 0.1 | – | –
12 | COc1ccc(C2CCOCC2)c2nc(NC(=O)c3cccc(N=S(C)(C)=O)c3)[nH]c12 [compound 263, 3-{[dimethyl(oxo)-lambda6-sulfanylidene]amino}-N-[7-methoxy-4-(oxan-4-yl)-1H-1,3-benzodiazol-2-yl]benzamide] | < 0.1 | – | > 1
13 | COCCn1cc(C(=O)Nc2nc3c(-c4ccc5cc[nH]c5c4)ccc(OC)c3[nH]2)cn1 [compound 280, N-[4-(1H-indol-6-yl)-7-methoxy-1H-1,3-benzodiazol-2-yl]-1-(2-methoxyethyl)-1H-pyrazole-4-carboxamide] | < 0.1 | < 0.1 | –
14 | COc1ccc(-c2ccccc2)c2nc(NC(=O)c3cnc4ccccn34)[nH]c12 [compound 286, N-(7-methoxy-4-phenyl-1H-1,3-benzodiazol-2-yl)imidazo[1,2-a]pyridine-3-carboxamide] | < 0.1 | < 0.1 | –
15 | COc1ccc(-c2ccccc2)c2nc(NC(=O)c3cnc4ncccn34)[nH]c12 [compound 289, N-(7-methoxy-4-phenyl-1H-1,3-benzodiazol-2-yl)imidazo[1,2-a]pyrimidine-3-carboxamide] | < 0.1 | < 0.01 | –
16 | COc1ccc(-c2ccccc2)c2nc(NC(=O)c3c[nH]c(-c4ccncc4)n3)[nH]c12 [compound 290, N-(7-methoxy-4-phenyl-1H-1,3-benzodiazol-2-yl)-2-(pyridin-4-yl)-1H-imidazole-4-carboxamide] | < 0.1 | < 0.1 | –
17 | COc1ccc(-c2ccnc(C)c2)c2[nH]c(NC(=O)c3c[nH]cn3)nc12 [compound 299, N-[4-methoxy-7-(2-methylpyridin-4-yl)-1H-1,3-benzodiazol-2-yl]-1H-imidazole-4-carboxamide] | < 0.1 | < 0.1 | –
18 | COc1cc(C#N)c(-c2ccccc2)c2nc(NC(=O)c3cnn(C)c3)[nH]c12 [compound 300, N-(5-cyano-7-methoxy-4-phenyl-1H-1,3-benzodiazol-2-yl)-1-methyl-1H-pyrazole-4-carboxamide] | < 0.1 | < 0.1 | –
19 | COCCn1cc(C(=O)Nc2nc3c(-c4ccn5ccnc5c4)ccc(OC)c3[nH]2)cn1 [compound 301, N-(4-{imidazo[1,2-a]pyridin-7-yl}-7-methoxy-1H-1,3-benzodiazol-2-yl)-1-(2-methoxyethyl)-1H-pyrazole-4-carboxamide] | < 0.1 | – | < 1
20 | COCCn1cc(C(=O)Nc2nc3c(-c4ccc5[nH]ccc5c4)ccc(OC)c3[nH]2)cn1 [compound 302, N-[4-(1H-indol-5-yl)-7-methoxy-1H-1,3-benzodiazol-2-yl]-1-(2-methoxyethyl)-1H-pyrazole-4-carboxamide] | < 0.1 | < 0.1 | –
21 | COc1ccc(-c2ccc3[nH]ccc3c2)c2nc(NC(=O)N3CCC(C)(O)CC3)[nH]c12 [compound 303, 4-hydroxy-N-[4-(1H-indol-5-yl)-7-methoxy-1H-1,3-benzodiazol-2-yl]-4-methylpiperidine-1-carboxamide] | < 0.1 | – | > 1
22 | COc1ccc(-c2ccccc2)c2nc(NC(=O)c3cnn(C)c3)[nH]c12 [compound 306, N-(7-methoxy-4-phenyl-1H-1,3-benzodiazol-2-yl)-1-methyl-1H-pyrazole-4-carboxamide] | < 0.1 | < 0.01 | –
23 | COCCn1cc(C(=O)Nc2nc3c(-c4ccccc4)ccc(OC)c3[nH]2)cn1 [compound 307, N-(7-methoxy-4-phenyl-1H-1,3-benzodiazol-2-yl)-1-(2-methoxyethyl)-1H-pyrazole-4-carboxamide] | < 0.1 | < 0.01 | –
24 | COc1ccc(-c2ccccc2)c2nc(NC(=O)c3cnc(C)o3)[nH]c12 [compound 308, N-(7-methoxy-4-phenyl-1H-1,3-benzodiazol-2-yl)-2-methyl-1,3-oxazole-5-carboxamide] | < 0.1 | < 0.1 | –
25 | COc1ccc(-c2ccccc2)c2nc(NC(=O)c3ccc(C(=O)N(C)C)cc3)[nH]c12 [compound 309, N4-(7-methoxy-4-phenyl-1H-1,3-benzodiazol-2-yl)-N1,N1-dimethylbenzene-1,4-dicarboxamide] | < 0.1 | < 0.01 | –
